Assay results as given in PubChem BioAssay (NCI).
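The compound was tested at five concentrations on cells cultured in 96-well plates, with a 48-hour exposure period. Here, GI50 denotes the concentration required for 50% inhibition of growth. At the TGI there is no net growth.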

Tests used:
Assay in all cases: growth of human tumour cells (NCI), 48 h
786-0 renal = system: 786-0 renal
A498 renal = system: A498 renal
A549 NSCLC = system: A549 NSCLC
ACHN renal = system: ACHN renal
BT-549 breast = system: BT-549 breast
CAKI-1 renal = system: CAKI-1 renal
CCRF-CEM leukemia = system: CCRF-CEM leukemia
COLO 205 colon = system: COLO 205 colon
DU-145 prostate = system: DU-145 prostate
EKVX NSCLC = system: EKVX NSCLC
HCC-2998 colon = system: HCC-2998 colon
HCT-116 colon = system: HCT-116 colon
HCT-15 colon = system: HCT-15 colon
HL-60(TB) leukemia = system: HL-60(TB) leukemia
HOP-62 NSCLC = system: HOP-62 NSCLC
HOP-92 NSCLC = system: HOP-92 NSCLC
HS 578T breast = system: HS 578T breast
HT29 colon = system: HT29 colon
IGROV1 ovarian = system: IGROV1 ovarian
K-562 leukemia = system: K-562 leukemia
KM12 colon = system: KM12 colon
LOX IMVI melanoma = system: LOX IMVI melanoma
M14 melanoma = system: M14 melanoma
MALME-3M melanoma = system: MALME-3M melanoma
MCF7 breast = system: MCF7 breast
MDA-MB-231 breast = system: MDA-MB-231 breast
MDA-MB-435 = system: MDA-MB-435
MDA-MB-468 breast = system: MDA-MB-468 breast
MOLT-4 leukemia = system: MOLT-4 leukemia
NCI-H226 lung = system: NCI-H226 lung
NCI-H23 lung = system: NCI-H23 lung
NCI-H460 lung = system: NCI-H460 lung
NCI-H522 lung = system: NCI-H522 lung
NCI/ADR-RES ovarian = system: NCI/ADR-RES ovarian
OVCAR-3 ovarian = system: OVCAR-3 ovarian
OVCAR-4 ovarian = system: OVCAR-4 ovarian
OVCAR-5 ovarian = system: OVCAR-5 ovarian
OVCAR-8 ovarian = system: OVCAR-8 ovarian
PC-3 prostate = system: PC-3 prostate
RPMI-8226 leukemia = system: RPMI-8226 leukemia
RXF 393 renal = system: RXF 393 renal
SF-268 CNS = system: SF-268 CNS
SF-295 CNS = system: SF-295 CNS
SF-539 CNS = system: SF-539 CNS
SK-MEL-2 melanoma = system: SK-MEL-2 melanoma
SK-MEL-28 melanoma = system: SK-MEL-28 melanoma
SK-MEL-5 melanoma = system: SK-MEL-5 melanoma
SK-OV-3 ovarian = system: SK-OV-3 ovarian
SN12C renal = system: SN12C renal
SNB-19 CNS = system: SNB-19 CNS
SNB-75 CNS = system: SNB-75 CNS
SR leukemia = system: SR leukemia
SW-620 colon = system: SW-620 colon
T-47D breast = system: T-47D breast
TK-10 renal = system: TK-10 renal
U251 CNS = system: U251 CNS
UACC-257 melanoma = system: UACC-257 melanoma
UACC-62 melanoma = system: UACC-62 melanoma
UO-31 renal = system: UO-31 renal

Q: What does the source list for `O=C(Nc1ccc(OCc2ccc(F)cc2)cc1)Nc1ccc(Cl)c(C(F)(F)F)c1`?
A: GI50 (786-0 renal): 3.12 µM; TGI (786-0 renal): 11.9 µM; GI50 (A498 renal): 2.16 µM; TGI (A498 renal): 6.69 µM; GI50 (A549 NSCLC): 2.83 µM; TGI (A549 NSCLC): 12.1 µM; GI50 (ACHN renal): 3.21 µM; TGI (ACHN renal): 11 µM; GI50 (BT-549 breast): 2.08 µM; TGI (BT-549 breast): 6.1 µM; GI50 (CAKI-1 renal): 2.56 µM; TGI (CAKI-1 renal): 9.1 µM; GI50 (CCRF-CEM leukemia): 3.01 µM; TGI (CCRF-CEM leukemia): 11.3 µM; GI50 (COLO 205 colon): 1.82 µM; TGI (COLO 205 colon): 3.37 µM; GI50 (DU-145 prostate): 3.96 µM; TGI (DU-145 prostate): 14.3 µM; GI50 (EKVX NSCLC): 2.56 µM; TGI (EKVX NSCLC): 8.33 µM; GI50 (HCC-2998 colon): 3.08 µM; TGI (HCC-2998 colon): 11.2 µM; GI50 (HCT-116 colon): 3.11 µM; TGI (HCT-116 colon): 10.4 µM; GI50 (HCT-15 colon): 2.75 µM; TGI (HCT-15 colon): 11 µM; GI50 (HL-60(TB) leukemia): 2.7 µM; TGI (HL-60(TB) leukemia): 7.29 µM; GI50 (HOP-62 NSCLC): 3.03 µM; TGI (HOP-62 NSCLC): 11.4 µM; GI50 (HOP-92 NSCLC): 1.88 µM; TGI (HOP-92 NSCLC): 5.78 µM; GI50 (HS 578T breast): 2.88 µM; TGI (HS 578T breast): 8.28 µM; GI50 (HT29 colon): 3.33 µM; TGI (HT29 colon): 14.5 µM; GI50 (IGROV1 ovarian): 4.45 µM; TGI (IGROV1 ovarian): 16.2 µM; GI50 (K-562 leukemia): 3.02 µM; TGI (K-562 leukemia): > 100 µM; GI50 (KM12 colon): 2.86 µM; TGI (KM12 colon): 8.39 µM; GI50 (LOX IMVI melanoma): 2.79 µM; TGI (LOX IMVI melanoma): 9.64 µM; GI50 (M14 melanoma): 2.79 µM; TGI (M14 melanoma): 10.4 µM; GI50 (MALME-3M melanoma): 2.07 µM; TGI (MALME-3M melanoma): 5.78 µM; GI50 (MCF7 breast): 2.25 µM; TGI (MCF7 breast): 8.25 µM; GI50 (MDA-MB-231 breast): 2.46 µM; TGI (MDA-MB-231 breast): 5.84 µM; GI50 (MDA-MB-435): 2.15 µM; TGI (MDA-MB-435): 4.9 µM; GI50 (MDA-MB-468 breast): 1.85 µM; TGI (MDA-MB-468 breast): 4.71 µM; GI50 (MOLT-4 leukemia): 2.74 µM; TGI (MOLT-4 leukemia): 13.8 µM; GI50 (NCI-H226 lung): 2.46 µM; TGI (NCI-H226 lung): 7.87 µM; GI50 (NCI-H23 lung): 2.38 µM; TGI (NCI-H23 lung): 7.17 µM; GI50 (NCI-H460 lung): 2.51 µM; TGI (NCI-H460 lung): 6.68 µM; GI50 (NCI-H522 lung): 3.03 µM; TGI (NCI-H522 lung): 12.3 µM; GI50 (NCI/ADR-RES ovarian): 2.4 µM; TGI (NCI/ADR-RES ovarian): 8.36 µM; GI50 (OVCAR-3 ovarian): 3.11 µM; TGI (OVCAR-3 ovarian): 10.6 µM; GI50 (OVCAR-4 ovarian): 2.89 µM; TGI (OVCAR-4 ovarian): 10.3 µM; GI50 (OVCAR-5 ovarian): 3.24 µM; TGI (OVCAR-5 ovarian): 12.2 µM; GI50 (OVCAR-8 ovarian): 3.52 µM; TGI (OVCAR-8 ovarian): 13.9 µM; GI50 (PC-3 prostate): 2.21 µM; TGI (PC-3 prostate): 10.7 µM; GI50 (RPMI-8226 leukemia): 2.77 µM; TGI (RPMI-8226 leukemia): 21.8 µM; GI50 (RXF 393 renal): 2.57 µM; TGI (RXF 393 renal): 7.32 µM; GI50 (SF-268 CNS): 3.37 µM; TGI (SF-268 CNS): 12.1 µM; GI50 (SF-295 CNS): 1.89 µM; TGI (SF-295 CNS): 4.82 µM; GI50 (SF-539 CNS): 3.13 µM; TGI (SF-539 CNS): 10.1 µM; GI50 (SK-MEL-2 melanoma): 2.51 µM; TGI (SK-MEL-2 melanoma): 7.15 µM; GI50 (SK-MEL-28 melanoma): 3.62 µM; TGI (SK-MEL-28 melanoma): 12.7 µM; GI50 (SK-MEL-5 melanoma): 1.68 µM; TGI (SK-MEL-5 melanoma): 3.07 µM; GI50 (SK-OV-3 ovarian): 2.28 µM; TGI (SK-OV-3 ovarian): 7.28 µM; GI50 (SN12C renal): 2.88 µM; TGI (SN12C renal): 10.3 µM; GI50 (SNB-19 CNS): 3.22 µM; TGI (SNB-19 CNS): 11.9 µM; GI50 (SNB-75 CNS): 1.33 µM; TGI (SNB-75 CNS): 6.2 µM; GI50 (SR leukemia): 2.85 µM; TGI (SR leukemia): 12.6 µM; GI50 (SW-620 colon): 3.31 µM; TGI (SW-620 colon): 11.6 µM; GI50 (T-47D breast): 2.46 µM; TGI (T-47D breast): 10.1 µM; GI50 (TK-10 renal): 3.83 µM; TGI (TK-10 renal): 14.4 µM; GI50 (U251 CNS): 2.74 µM; TGI (U251 CNS): 10.8 µM; GI50 (UACC-257 melanoma): 2.2 µM; TGI (UACC-257 melanoma): 6.68 µM; GI50 (UACC-62 melanoma): 2.25 µM; TGI (UACC-62 melanoma): 7.75 µM; GI50 (UO-31 renal): 2.37 µM; TGI (UO-31 renal): 10.1 µM
